Laboratory results reported in patent US20230165846A1, “HETEROCYCLIC GLP-1 AGONISTS” (Gasherbrum Bio, Inc., priority 2020, published 2023).

What was measured:
GLP-1 Receptor [1] = target: T1, GLP-1 Receptor (Homo sapiens, UniProt P43220); assay: GLP-1R agonist cAMP stimulation assay, Method 1 (DiscoverX CHO-K1, enzyme fragment complementation); type: cell-based; conditions: CHO-K1 cell line (DiscoverX) stably expressing GLP-1 Receptor; incubation 30 or 60 min at 37° C.; geometric mean where n>=2; read-out: GLP1R cAMP Stimulation DR: EC50 (nM) Method 1
T1 sequence (P43220 24-463): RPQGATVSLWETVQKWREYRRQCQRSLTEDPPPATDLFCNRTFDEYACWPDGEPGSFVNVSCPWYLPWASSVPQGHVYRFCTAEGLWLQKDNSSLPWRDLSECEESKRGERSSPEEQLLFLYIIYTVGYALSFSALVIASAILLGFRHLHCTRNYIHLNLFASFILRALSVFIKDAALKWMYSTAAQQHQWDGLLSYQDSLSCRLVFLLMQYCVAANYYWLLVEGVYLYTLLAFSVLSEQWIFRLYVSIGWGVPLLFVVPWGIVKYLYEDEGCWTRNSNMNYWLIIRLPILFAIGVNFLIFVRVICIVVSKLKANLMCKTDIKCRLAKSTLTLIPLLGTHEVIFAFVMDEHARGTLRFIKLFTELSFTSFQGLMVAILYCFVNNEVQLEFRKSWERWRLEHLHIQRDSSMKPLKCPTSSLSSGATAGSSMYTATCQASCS
Experimental: Activation of GLP-1 receptor is known to stimulate cyclic AMP (cAMP) production in cells which indicates primary coupling to the Gas subunit of the G protein heterotrimeric complex.
Method 1: To optimize functional activity directed toward Gas coupling, a CHO—K1 cell line developed by DiscoverX stably expressing the GLP-1 Receptor was used. Cells expressing GLP-1 receptor were plated in a 384-well microtiter plates and incubated overnight at 37° C. with 5% CO2 to allow the cells to attach and grow. Media was then aspirated from the cells and replaced with 15 uL 2:1 Hanks Balanced Salt Solution (HBSS)/10mM Hepes : cAMP XS+ Ab reagent. Five microliters (5 uL) of previously generated compound sample stocks at 4x final concentration in assay buffer were then added to the cells and allowed to incubate at 37° C. for 30 or 60 minutes.
After incubation the assay signal was generated using enzyme fragment complementation (EFC). In EFC, the enzyme B-galactosidase is split into two complementary portions (EA and ED). The fragment ED is fused to cAMP and in the assay format competes with endogenous cAMP for binding to a cAMP specific antibody. Activated β—Gal is formed when exogenous EA fragment binds to free ED-cAMP (not bound to cAMP specific antibody). Activated enzyme levels are detected through conversion of β-gal chemiluminescent substrate which generates a detectable luminescence signal and read on standard microtiter plate.
The methodology for detection of cAMP using EFC requires incubation with 20uL of cAMP XS+ ED/CL lysis cocktail for one hour followed by incubation with 20 uL cAMP XS+ EA reagent for three hours at room temperature. Microplates were read following signal generation with a PerkinElmer Envision instrument utilizing chemiluminescent signal detection. Compound activity was analyzed using CBIS data analysis suite (ChemInnovation, CA). Percentage activity was calculated using the following formula:
(§1) %Activity = 100% x (mean RLU of test sample - mean RLU of vehicle control) / (mean RLU of MAX control - mean RLU of vehicle control))
(§2) This is done to account for the lognormal distribution of multiple estimates of EC50 values. In practice geometric mean is calculated by first generating log values of EC50, averaging replicates and then calculating the antilog of the average.

GLP-1 Receptor [2] = target: T1, GLP-1 Receptor; assay: GLP-1R agonist cAMP stimulation assay, Method 2 (HDB HEK293/GLP1R/CRE-LUC, Cisbio cAMP dynamic 2 kit); type: cell-based; conditions: HEK293/GLP1R/CRE-LUC cells (HD Biosciences); 30 min at 37° C.; 0.5 mM IBMX, 0.1% BSA; geometric mean where n>=2; read-out: GLP1R cAMP Stimulation DR: EC50 (nM) Method 2 (HDB)
Experimental: Method 2: Activation of GLP-1 receptor is known to stimulate cyclic AMP (cAMP) production in cells which indicates primary coupling to the Gas subunit of the G protein heterotrimeric complex.
To optimize functional activity directed toward Gas coupling, a HEK293/CRE-Luc cell line developed by HDB stably expressing the GLP-1 Receptor was used. 200× concentration of compound working solutions were prepared (Agilent Technologies Bravo) with ½log serial dilution in 384-well Echo LDV plate (Labcyte, Cat# LP-0200). […] Seal the plate and incubate at 37° C. with 5% CO2 for 30 min.
After incubation the cAMP assay signal was generated using cAMP dynamic 2 Kit (Cisbio). 5 µL cAMP-d2 working solution was added to each well, followed with 5 µL Anti-cAMP antibody-cryptate working solution added to each well using ThermoFisher Multidrop Combi. Incubate at room temperature for 1 hour protected from light.
as §1, §2

SMILES	EC50 (GLP-1 Receptor [1])	EC50 (GLP-1 Receptor [2])
O=C(O)c1ccc2nc(Cc3ccc(-c4nccc(OCc5ccc(Cl)cc5F)n4)cc3)n(C[C@@H]3CCO3)c2n1 [Compound 101aw, (S)-2-(4-(4-((4-chloro-2-fluorobenzyl)oxy)pyrimidin-2-yl)benzyl)-3-(oxetan-2-ylmethyl)-3H-imidazo[4,5-b]pyridine-5-carboxylic acid]	0.069 nM	0.097 nM
O=C(O)c1ccc2nc(CC3CC=C(c4cccc(OCc5ccc(Cl)cc5F)n4)CC3)n(C[C@@H]3CCO3)c2n1 (stereo partly drawn) [Compound 102a, 2-((4-(6-((4-chloro-2-fluorobenzyl)oxy)pyridin-2-yl)cyclohex-3-en-1-yl)methyl)-3-(((S)-oxetan-2-yl)methyl)-3H-imidazo[4,5-b]pyridine-5-carboxylic acid]	0.016 nM	0.0096 nM
O=C(O)c1ccc2nc(Cc3ccc(-c4nccc(OCc5ccccc5)n4)cc3)n(C[C@@H]3CCO3)c2n1 [Compound 102aw, 2-[[4-(4-benzyloxypyrimidin-2-yl)phenyl]methyl]-3-[[(2S)-oxetan-2-yl]methyl]imidazo[4,5-b]pyridine-5-carboxylic acid]	2.2 nM	1.9 nM
O=C(O)c1ccc2nc(CC3CC=C(c4nccc(OCc5ccc(Cl)cc5F)n4)CC3)n(C[C@@H]3CCO3)c2n1 (stereo partly drawn) [Compound 103a, 2-((4-(4-((4-chloro-2-fluorobenzyl)oxy)pyrimidin-2-yl)cyclohex-3-en-1-yl)methyl)-3-(((S)-oxetan-2-yl)methyl)-3H-imidazo[4,5-b]pyridine-5-carboxylic acid]	0.073 nM	0.095 nM
O=C(O)c1ccc2nc(Cn3ccc(-c4cccc(OCc5ccc(Cl)cc5F)n4)cc3=O)n(C[C@@H]3CCO3)c2n1 [Compound 103aw, (S)-2-((6-((4-chloro-2-fluorobenzyl)oxy)-2′-oxo-[2,4′-bipyridin]-1′(2′H)-yl)methyl)-3-(oxetan-2-ylmethyl)-3H-imidazo[4,5-b]pyridine-5-carboxylic acid]	0.38 nM	0.89 nM
O=C(O)c1ccc2nc(CC3CC=C(c4ccnc(OCc5ccc(Cl)cc5F)n4)CC3)n(C[C@@H]3CCO3)c2n1 (stereo partly drawn) [Compound 104a, 2-((4-(2-((4-chloro-2-fluorobenzyl)oxy)pyrimidin-4-yl)cyclohex-3-en-1-yl)methyl)-3-(((S)-oxetan-2-yl)methyl)-3H-imidazo[4,5-b]pyridine-5-carboxylic acid]	0.114 nM	0.12 nM
Cc1cn(Cc2nc3ccc(C(=O)O)nc3n2C[C@@H]2CCO2)c(=O)cc1-c1cccc(OCc2ccc(Cl)cc2F)n1 [Compound 104aw, (S)-2-((6-((4-chloro-2-fluorobenzyl)oxy)-5′-methyl-2′-oxo-[2,4′-bipyridin]-1′(2′H)-yl)methyl)-3-(oxetan-2-ylmethyl)-3H-imidazo[4,5-b]pyridine-5-carboxylic acid]	0.17 nM	0.13 nM
N#Cc1ccc(COc2nccc(C3=CCC(Cc4nc5ccc(C(=O)O)nc5n4C[C@@H]4CCO4)CC3)n2)c(F)c1 (stereo partly drawn) [Compound 105a, 2-((4-(2-((4-cyano-2-fluorobenzyl)oxy)pyrimidin-4-yl)cyclohex-3-en-1-yl)methyl)-3-(((S)-oxetan-2-yl)methyl)-3H-imidazo[4,5-b]pyridine-5-carboxylic acid]	0.12 nM	0.089 nM
Cc1c(-c2cccc(OCc3ccc(Cl)cc3F)n2)ccn(Cc2nc3ccc(C(=O)O)nc3n2C[C@@H]2CCO2)c1=O [Compound 105aw, (S)-2-((6-((4-chloro-2-fluorobenzyl)oxy)-3′-methyl-2′-oxo-[2,4′-bipyridin]-1′(2′H)-yl)methyl)-3-(oxetan-2-ylmethyl)-3H-imidazo[4,5-b]pyridine-5-carboxylic acid]	11 nM	7.1 nM
N#Cc1ccc(COc2cccc(-c3ccn(Cc4nc5ccc(C(=O)O)nc5n4C[C@@H]4CCO4)c(=O)c3)n2)c(F)c1 [Compound 106aw, (S)-2-((6-((4-cyano-2-fluorobenzyl)oxy)-2′-oxo-[2,4′-bipyridin] -1′(2′H)-yl)methyl)-3-(oxetan-2-ylmethyl)-3H-imidazo[4,5-b]pyridine-5-carboxylic acid]	1.3 nM	4.1 nM
O=C(O)c1ccc2nc(Cn3ccc(-c4cccc(OCc5ccc(Cl)cc5F)n4)cc3=O)n(C[C@@H]3CCO3)c2c1 [Compound 107aw, 2-[[4-[6-[(4-chloro-2-fluorophenyl)methoxy]-2-pyridyl]-2-oxo-1-pyridyl]methyl]-3-[[(2S)-oxetan-2-yl]methyl]benzimidazole-5-carboxylic acid]	0.28 nM	0.19 nM
O=C(O)c1ccc2nc(Cn3ccc(-c4cccc(OCc5ccc(Cl)cc5F)c4)cc3=O)n(C[C@@H]3CCO3)c2n1 [Compound 108aw, 2-[[4-[3-[(4-chloro-2-fluoro-phenyl)methoxy]phenyl]-2-oxo-1-pyridyl]methyl]-3-[[(2S)-oxetan-2-yl]methyl]-imidazo[4,5-b]pyridine-5-carboxylic acid]	5.9 nM	5.7 nM

More lines, now with the values ahead:

EC50 (GLP-1 Receptor [1])	EC50 (GLP-1 Receptor [2])	SMILES
4.8 nM	10 nM	O=C(O)c1ccc2nc(COc3cc(-c4cccc(OCc5ccc(Cl)cc5F)n4)c(F)cn3)n(C[C@@H]3CCO3)c2n1 [Compound 109aw, (S)-2-(((6-((4-chloro-2-fluorobenzyl)oxy)-5′-fluoro-[2,4′-bipyridin]-2′-yl)oxy)methyl)-3-(oxetan-2-ylmethyl)-3H-imidazo[4,5-b]pyridine-5-carboxylic acid]
< 0.051 nM	0.0074 nM	O=C(O)c1ccc2nc(CN3CC=C(c4cccc(OCc5ccc(Cl)cc5F)n4)CC3)n(C[C@@H]3CCO3)c2n1 [Compound 110a, (S)-2-((6-((4-chloro-2-fluorobenzyl)oxy)-3′,6′-dihydro-[2,4′-bipyridin]-1′(2′H)-yl)methyl)-3-(oxetan-2-ylmethyl)-3H-imidazo[4,5-b]pyridine-5-carboxylic acid]
43 nM	88 nM	O=C(O)c1ccc2nc(COc3cc(-c4cccc(OCc5ccc(Cl)cc5F)c4)ccn3)n(C[C@@H]3CCO3)c2n1 [Compound 110aw, 2-[[4-[3-[(4-chloro-2-fluoro-phenyl)methoxy]phenyl]-2-pyridyl]oxymethyl]-3-[[(2S)-oxetan-2-yl]methyl]imidazo[4,5-b]pyridine-5-carboxylic acid]
0.18 nM	0.073 nM	O=C(O)c1ccc2nc(CN3CC=C(c4csc(OCc5ccc(Cl)cc5F)n4)CC3)n(C[C@@H]3CCO3)c2n1 [Compound 111a]
0.26 nM	0.17 nM	N#Cc1ccc(COc2nc(C3=CCN(Cc4nc5ccc(C(=O)O)nc5n4C[C@@H]4CCO4)CC3)cs2)c(F)c1 [Compound 112a, (S)-2-((4-(2-((4-cyano-2-fluorobenzyl)oxy)thiazol-4-yl)-3,6-dihydropyridin-1 (2H)-yl)methyl)-3-(oxetan-2-ylmethyl)-3H-imidazo[4,5-b]pyridine-5-carboxylic acid]
< 0.051 nM	0.017 nM	O=C(O)c1ccc2nc(Cc3ccc(-c4cccc(OCc5ccc(Cl)cc5F)n4)cc3)n(C[C@@H]3CCO3)c2n1 [Compound 120aw, 2-[[4-[6-[(4-chloro-2-fluoro-phenyl)methoxy]-2-pyridyl]phenyl]methyl]-3-[[(2S)-oxetan-2-yl]methyl]imidazo[4,5-b]pyridine-5-carboxylic acid]
